The record followed here is publication PMC12196347, “Evaluating Triazole-Substituted Pyrrolopyrimidines as CSF1R Inhibitors” (Molecules, 2025).

Values after ≈ are worked out from the molar mass of the structure shown. Bounds are passed on as bounds.

The target of series [1] is CSF1R (Homo sapiens, UniProt P07333). Description: CSF1R enzymatic IC50, Z-LYTE assay platform. The class given is biochemical. The note with it: for Hill coefficient: Z-LYTE CSF1R IC50 curve; for IC50: Z-LYTE, 10-point titrations in duplicates, ATP equal to KM ca. 10 µM, read-out: CSF1R enz. IC50.
Target sequence in this assay (P07333 20-972): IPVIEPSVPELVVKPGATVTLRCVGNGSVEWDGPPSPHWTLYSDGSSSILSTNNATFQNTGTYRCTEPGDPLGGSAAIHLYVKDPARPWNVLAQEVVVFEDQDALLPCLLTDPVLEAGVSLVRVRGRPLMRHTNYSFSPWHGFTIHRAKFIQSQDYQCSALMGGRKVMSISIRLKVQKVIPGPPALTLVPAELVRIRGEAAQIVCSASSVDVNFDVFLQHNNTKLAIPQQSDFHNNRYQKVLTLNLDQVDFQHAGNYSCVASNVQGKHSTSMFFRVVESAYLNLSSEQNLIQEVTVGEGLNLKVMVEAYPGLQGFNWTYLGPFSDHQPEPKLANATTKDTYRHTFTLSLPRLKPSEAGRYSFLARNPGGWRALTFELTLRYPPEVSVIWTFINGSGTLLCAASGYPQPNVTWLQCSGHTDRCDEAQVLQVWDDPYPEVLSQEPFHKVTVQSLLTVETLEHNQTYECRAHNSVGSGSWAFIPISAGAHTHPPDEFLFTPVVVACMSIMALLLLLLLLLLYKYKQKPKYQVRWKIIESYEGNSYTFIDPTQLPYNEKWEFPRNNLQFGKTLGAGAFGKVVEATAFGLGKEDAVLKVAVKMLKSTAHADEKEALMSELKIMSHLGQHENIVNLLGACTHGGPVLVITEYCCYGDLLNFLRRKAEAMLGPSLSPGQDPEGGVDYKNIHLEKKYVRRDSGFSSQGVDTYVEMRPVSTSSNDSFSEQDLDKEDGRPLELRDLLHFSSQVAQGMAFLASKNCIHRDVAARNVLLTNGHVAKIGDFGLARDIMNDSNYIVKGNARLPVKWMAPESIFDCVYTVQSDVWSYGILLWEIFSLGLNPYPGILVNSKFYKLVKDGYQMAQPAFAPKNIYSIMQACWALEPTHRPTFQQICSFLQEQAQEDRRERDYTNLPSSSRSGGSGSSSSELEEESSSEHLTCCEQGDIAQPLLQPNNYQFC
Series [2] has as its system KIT-positive cell line GIST-T1. Description: GIST-T1 CellTiter-Glo cell viability assay. As to conditions: Homo sapiens, GISTT1; cellular proliferation, GIST-T1, 72 h. The class given is cell-based. (Cellular ATP, detected with luciferase, serves as a proxy for viable cell number.)
The subject of a further series is CSF1R Ba/F3 cells. The series is described as follows: Cell viability assay, Ba/F3 cells engineered to be dependent on CSF1R. The class given is cell-based. The note with it: duplicate measurements.
A further series has as its target T1, cKIT kinase (Homo sapiens, UniProt P10721).
T1 construct: purchased Carna Biosciences
The series is described as follows: KIT inhibition (KD), TR-FRET tracer displacement. The class given is binding. As to conditions: kinase tracer 236, anti-GST antibody Eu-conjugate, read-out: KIT enz. KD. (In general: TR-FRET usually uses a lanthanide donor and a delayed reading to cut background.)

Series [3] addresses T2, CSF1R (Homo sapiens, UniProt P07333).
T2 sequence (P07333 539-972 limits assumed): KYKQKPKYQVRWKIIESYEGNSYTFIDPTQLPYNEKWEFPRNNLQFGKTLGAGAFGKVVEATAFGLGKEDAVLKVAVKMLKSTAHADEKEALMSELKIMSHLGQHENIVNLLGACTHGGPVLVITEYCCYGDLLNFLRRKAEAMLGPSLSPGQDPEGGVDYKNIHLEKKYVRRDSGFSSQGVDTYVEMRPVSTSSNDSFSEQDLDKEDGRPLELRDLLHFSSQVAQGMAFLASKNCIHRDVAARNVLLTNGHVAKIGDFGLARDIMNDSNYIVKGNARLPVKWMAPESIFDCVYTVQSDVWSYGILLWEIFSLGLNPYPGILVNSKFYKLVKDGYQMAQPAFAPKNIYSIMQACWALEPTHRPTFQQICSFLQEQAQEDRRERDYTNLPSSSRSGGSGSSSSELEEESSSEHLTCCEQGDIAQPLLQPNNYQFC
The series is described as follows: CSF1R enzymatic inhibition, TR-FRET-based LANCE Ultra assay. The class given is biochemical. The note with it: single 8-point titrations, ATP concentration 25 µM, read-out: Enz. IC50.

Series [4] has as its system IL-3 dependent Ba/F3 cell line (CSF1R independent). Description: Control assay for cellular toxicity, Ba/F3 cells dependent on IL-3. The format is cell-based. The note with it: Mus musculus, BaF3; Ba/F3 cells dependent on IL-3, control for cellular toxicity.
Series [5] is described as follows: Kinetic solubility, spectrophotometric. The class given is physicochemical. As to conditions: aqueous buffer, kinetic from dmso stock, spectrophotometrically at pH 7.4 in HEPES buffer.
The nature of series [6]: Human liver microsome intrinsic clearance, Phase I. The class given is in vitro ADME. The note with it: in vitro intrinsic clearance. (Liver microsomes are vesicles of endoplasmic reticulum, rich in cytochrome P450 enzymes.)
The nature of series [7]: Mouse liver microsome intrinsic clearance, Phase I. The format is in vitro ADME. The note with it: in vitro intrinsic clearance.
Series [8] can be described thus: Mouse plasma protein binding. The class given is in vitro ADME. The note with it: fraction bound, read-out: PPB (converted).
A further series in a line: MDCK permeability assay. The class given is in vitro ADME, canine. The note with it: dog, MDCK cell monolayer; for Papp A→B: A-B direction; for Papp B→A: B-A direction; for efflux ratio: read-out: Ratio Papp B > A/Papp A > B.
Series [9] can be described thus: Caco-2 permeability assay. The class given is in vitro ADME. The note with it: human; Caco-2 cell assay.
The mark [10] stands for this setting: Mus musculus, BaF3, Ba/F3 cells dependent on CSF1R.

T1 sequence (P10721 26-976): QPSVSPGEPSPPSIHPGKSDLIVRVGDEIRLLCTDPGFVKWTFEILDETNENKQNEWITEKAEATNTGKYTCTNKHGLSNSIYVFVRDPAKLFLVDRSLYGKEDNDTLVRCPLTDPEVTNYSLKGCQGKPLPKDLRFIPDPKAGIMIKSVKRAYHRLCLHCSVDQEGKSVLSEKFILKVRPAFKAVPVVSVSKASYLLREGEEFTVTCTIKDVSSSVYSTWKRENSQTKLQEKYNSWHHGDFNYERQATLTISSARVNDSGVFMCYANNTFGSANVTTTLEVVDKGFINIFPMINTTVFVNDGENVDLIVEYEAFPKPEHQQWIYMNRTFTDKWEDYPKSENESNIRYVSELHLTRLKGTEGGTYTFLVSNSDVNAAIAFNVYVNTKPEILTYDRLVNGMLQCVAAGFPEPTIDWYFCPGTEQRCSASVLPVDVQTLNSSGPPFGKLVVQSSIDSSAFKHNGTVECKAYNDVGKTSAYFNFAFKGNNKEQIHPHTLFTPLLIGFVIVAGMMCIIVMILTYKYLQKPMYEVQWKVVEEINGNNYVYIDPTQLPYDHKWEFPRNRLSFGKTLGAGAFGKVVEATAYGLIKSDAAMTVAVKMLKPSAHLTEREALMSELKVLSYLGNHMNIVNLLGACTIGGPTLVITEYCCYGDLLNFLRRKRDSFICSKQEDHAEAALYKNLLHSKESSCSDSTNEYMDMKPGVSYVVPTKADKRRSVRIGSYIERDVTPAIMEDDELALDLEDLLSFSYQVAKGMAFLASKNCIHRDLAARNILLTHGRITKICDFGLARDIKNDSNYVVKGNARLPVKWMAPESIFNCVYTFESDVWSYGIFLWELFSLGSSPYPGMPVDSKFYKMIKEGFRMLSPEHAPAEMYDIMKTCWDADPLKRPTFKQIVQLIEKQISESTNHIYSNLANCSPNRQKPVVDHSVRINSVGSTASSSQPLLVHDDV

On to `COc1ccc(-n2cc(-c3cc4c(N(C)CC5CCOCC5)ncnc4[nH]3)nn2)cc1` [Compound 21b, 6-(1-(4-Methoxyphenyl)-1H-1,2,3-triazol-4-yl)-N-methyl-N-((tetrahydro-2H-pyran-4-yl)methyl)-7H-pyrrolo[2,3-d]pyrimidin-4-amine], for which, on CSF1R [1], the Hill coefficient (usually a measure of the steepness of the concentration-response curve) turned out to be 0.913. In addition, the IC50 (usually the concentration at which inhibition is half-maximal) at CSF1R [1] is 1.2 ± 0.3 nM; in series [2], more than 30000 nM; in the series with CSF1R Ba/F3 cells (setting [10]) it was 600 ± 200 nM; at CSF1R [3], 3 nM; in [4], more than 10000 nM. For the same molecule, at cKIT kinase, the equilibrium dissociation constant (Kd) – broadly, the concentration at which binding is half-saturated – is more than 1000 nM. Also, the kinetic solubility – broadly, the concentration staying in solution when a stock, usually in DMSO, is diluted into the medium – in series [5] is 7.3 µM (≈ 3.06 µg/mL). This molecule also came in with an HLM in series [6] of 74.5 µL/min/mg. The molecule also returned an MLM in series [7] of 288 µL/min/mg. For the same molecule, in series [8], the fraction unbound was 0.24. In addition, the apical-to-basolateral permeability (Papp A→B) (as a rule, the apparent permeability from the apical to the basolateral side of a cell layer) in the series “MDCK permeability assay” came to 10.7 ×10⁻⁶ cm/s. Besides, the Papp B→A (commonly how fast a substance crosses the layer from the basolateral side) in the series “MDCK permeability assay” was 13.6 ×10⁻⁶ cm/s. The efflux ratio in the series “MDCK permeability assay” was found to be 1.3.

The molecule `Cc1ccc(Cn2cc(-c3cc4c(N(C)CC5CCOCC5)ncnc4[nH]3)nn2)cc1` [Compound 25b, N-Methyl-6-(1-(4-methylbenzyl)-1H-1,2,3-triazol-4-yl)-N-((tetrahydro-2H-pyran-4-yl)methyl)-7H-pyrrolo[2,3-d]pyrimidin-4-amine] yielded a Hill coefficient at CSF1R [1] of 0.981. Further, the IC50 is 1.3 nM on CSF1R [1]; more than 3000 nM in series [2]; 500 nM in the series on CSF1R Ba/F3 cells (Ba/F3 cells dependent on CSF1R); 1000 nM in the series on CSF1R Ba/F3 cells (setting [10]); less than 1 nM on CSF1R [3]; more than 10000 nM in [4]. In addition, the Kd on cKIT kinase is more than 100 nM. This molecule had a solubility (kinetic) in [5] of 10.6 µM (≈ 4.43 µg/mL). In addition, the HLM in [6] is on record as 62.4 µL/min/mg. The same molecule had an MLM in series [7] of 1980 µL/min/mg. The fraction unbound in series [8] was 0.025. This molecule also showed an apparent permeability from apical to basolateral (Papp A→B) in “MDCK permeability assay” of 10 ×10⁻⁶ cm/s. For the same molecule, the apparent permeability from basolateral to apical (Papp B→A) in “MDCK permeability assay” stood at 25.4 ×10⁻⁶ cm/s. Moreover, the efflux ratio in “MDCK permeability assay” was 2.6.

On to `CN(CC1CCOCC1)c1ncnc2[nH]c(-c3cn(Cc4cccnc4)nn3)cc12` [Compound 27b, N-Methyl-6-(1-(pyridin-3-ylmethyl)-1H-1,2,3-triazol-4-yl)-N-((tetrahydro-2H-pyran-4-yl)methyl)-7H-pyrrolo[2,3-d]pyrimidin-4-amine], for which the IC50 is 1700 ± 100 nM in the series with CSF1R Ba/F3 cells (setting [10]), 1.8 nM at CSF1R [3] and more than 10000 nM in [4]. In addition, in series [5], the kinetic solubility worked out at 43 µM (≈ 17.4 µg/mL). Besides, the fraction unbound in series [8] was less than 0.01.

For the molecule `Cc1cccc(CN(C)c2ncnc3[nH]c(-c4cn(C5CCN(C)CC5)nn4)cc23)c1` [Compound 30a, N-Methyl-N-(3-methylbenzyl)-6-(1-(1-methylpiperidin-4-yl)-1H-1,2,3-triazol-4-yl)-7H-pyrrolo[2,3-d]pyrimidin-4-amine], the IC50 with CSF1R Ba/F3 cells (setting [10]) is 1100 ± 100 nM; at CSF1R [3], less than 1 nM; in series [4] it was more than 10000 nM. For the same molecule, in series [5], the solubility (kinetic) was 51 µM (≈ 21.2 µg/mL).

For `CN1CCC(n2cc(-c3cc4c(N(C)CC5CCOCC5)ncnc4[nH]3)nn2)CC1` [Compound 30b, N-Methyl-6-(1-(1-methylpiperidin-4-yl)-1H-1,2,3-triazol-4-yl)-N-((tetrahydro-2H-pyran-4-yl)methyl)-7H-pyrrolo[2,3-d]pyrimidin-4-amine], the half-inhibitory concentration (IC50) with CSF1R Ba/F3 cells (setting [10]) was 2400 ± 500 nM; at CSF1R [3], less than 1 nM; in [4], more than 10000 nM. The solubility (kinetic) in [5] came out at 42 µM (≈ 17.2 µg/mL).

Consider `Cc1cccc(CN(C)c2ncnc3[nH]c(-c4cn(CC5CCOCC5)nn4)cc23)c1` [Compound 31a, N-Methyl-N-(3-methylbenzyl)-6-(1-((tetrahydro-2H-pyran-4-yl)methyl)-1H-1,2,3-triazol-4-yl)-7H-pyrrolo[2,3-d]pyrimidin-4-amine], for which the half-inhibitory concentration (IC50) in the series with CSF1R Ba/F3 cells (setting [10]) was 2700 ± 1000 nM; at CSF1R [3], less than 1 nM; in series [4], more than 10000 nM. The same molecule had a solubility (kinetic) in series [5] of 2.5 µM (≈ 1.04 µg/mL).

On to `CN(CC1CCOCC1)c1ncnc2[nH]c(-c3cn(CC4CCOCC4)nn3)cc12` [Compound 31b, N-Methyl-N-((tetrahydro-2H-pyran-4-yl)methyl)-6-(1-((tetrahydro-2H-pyran-4-yl)methyl)-1H-1,2,3-triazol-4-yl)-7H-pyrrolo[2,3-d]pyrimidin-4-amine], for which the half-maximal inhibitory concentration (IC50) in the series with CSF1R Ba/F3 cells (setting [10]) is 1000 ± 200 nM; at CSF1R [3], less than 1 nM; in [4] it was more than 10000 nM. In series [5], this molecule had a solubility (kinetic) of 45 µM (≈ 18.5 µg/mL).

As for `FC(F)(F)c1ccc(CNc2ccc(Cc3c[nH]c4ncc(Cl)cc34)cn2)cn1` [PLX-3397, pexidartinib, reference compound], the Hill coefficient at CSF1R [1] is 1.18. Further, the half-maximal inhibitory concentration (IC50) in [2] is 30 nM; in the series on CSF1R Ba/F3 cells (setting [10]) it was 60 ± 100 nM; in series [4], more than 10000 nM. The fraction unbound in series [8] is less than 0.01.

For `Cc1cccc(CN(C)c2ncnc3[nH]c(-c4ccc(CO)cc4)cc23)c1` [Structure III], in series [9], the apical-to-basolateral permeability (Papp A→B) is 0.69 ×10⁻⁶ cm/s and the Papp B→A amounted to 0.19 ×10⁻⁶ cm/s.

Regarding `CN(CC1CCOCC1)c1ncnc2[nH]c(-c3ccc(N)cc3)cc12` [Structure IV, reference compound], the fraction unbound in [8] was 0.236.
